Measurements from PMC9078765, “Utilizing Network Pharmacology and Molecular Docking Integrated Surface Plasmon Resonance Technology to Investigate the Potential Targets and Mechanisms of Tripterygium wilfordii against Pulmonary Artery Hypertension” (Evidence-based Complementary and Alternative Medicine : eCAM, 2022).

Biological target: T1, CASP3 (Casp3) (Homo sapiens, UniProt P42574)
T1 construct: commercial recombinant protein, captured on Ni-NTA chip (His tag implied)
T1 sequence (P42574 29-175): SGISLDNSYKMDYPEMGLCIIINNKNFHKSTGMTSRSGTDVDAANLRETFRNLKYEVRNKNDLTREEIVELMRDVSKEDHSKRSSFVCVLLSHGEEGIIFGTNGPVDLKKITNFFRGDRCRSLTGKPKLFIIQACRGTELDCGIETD
T1 sequence (P42574 176-277): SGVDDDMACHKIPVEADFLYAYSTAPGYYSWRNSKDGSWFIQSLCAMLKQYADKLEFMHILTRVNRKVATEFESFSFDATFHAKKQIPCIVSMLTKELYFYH
Experiment: SPR (OpenSPR, NTA chip, one-to-one model)
Assay type: binding
Source text: SPR (OpenSPR, NTA chip, one-to-one model) on CASP3 (Casp3)

Kd: 7.65 µM
SMILES: O=c1c(O)c(-c2ccc(O)cc2)oc2cc(O)cc(O)c12 [Kaempferol]
